Measurements from ChEMBL document CHEMBL5649166, “RIP3 induces apoptosis independent of pronecrotic kinase activity” (Mol Cell, 2014).

How the values were obtained:
[1] = molecular target: Mitogen-activated protein kinase 10 (Homo sapiens) (UniProt P53779); assay: Inhibition of human JNK3 using ATF2 as substrate at 1 uM in presence of 32P-ATP by Hotspot assay relative to control; values are per cent of control
[2] = molecular target: Cyclin-dependent kinase 2/cyclin E1 (Homo sapiens) (UniProt P24864+P24941); assay: Inhibition of human CDK2/cyclin E using RB Protein as substrate at 1 uM in presence of 32P-ATP by Hotspot assay relative to control; values are per cent of control
[3] = molecular target: T1, Serine/threonine-protein kinase NLK (Homo sapiens) (UniProt Q9UBE8); assay: Inhibition of human NLK using myelin basic protein as substrate at 1 uM in presence of 32P-ATP by Hotspot assay relative to control; values are per cent of control
T1 sequence (whole entry): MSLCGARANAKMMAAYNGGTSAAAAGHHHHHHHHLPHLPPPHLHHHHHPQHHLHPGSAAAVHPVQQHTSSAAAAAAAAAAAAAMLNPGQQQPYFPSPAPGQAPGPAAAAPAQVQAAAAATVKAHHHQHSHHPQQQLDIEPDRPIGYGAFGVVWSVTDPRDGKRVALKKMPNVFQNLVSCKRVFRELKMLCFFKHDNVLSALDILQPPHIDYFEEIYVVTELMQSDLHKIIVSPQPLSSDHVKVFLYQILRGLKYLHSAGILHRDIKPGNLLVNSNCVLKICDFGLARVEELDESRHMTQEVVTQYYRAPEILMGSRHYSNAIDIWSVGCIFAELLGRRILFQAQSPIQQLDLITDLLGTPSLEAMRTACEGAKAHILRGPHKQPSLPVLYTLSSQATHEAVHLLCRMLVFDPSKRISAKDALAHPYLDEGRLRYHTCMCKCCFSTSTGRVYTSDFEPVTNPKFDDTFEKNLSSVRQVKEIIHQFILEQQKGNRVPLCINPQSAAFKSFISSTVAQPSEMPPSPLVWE

[4] = molecular target: Misshapen-like kinase 1 (Homo sapiens) (UniProt Q8N4C8); assay: Residual activity of human MINK/MINK1 using myelin basic protein as substrate at 1 uM in presence of 32P-ATP by Hotspot assay relative to control
[5] = molecular target: T2, Ephrin type-B receptor 3 (Homo sapiens) (UniProt P54753); assay: Residual activity of human EPHB3 using poly[Glu:Tyr] (4:1) as substrate at 1 uM in presence of 32P-ATP by Hotspot assay relative to control
T2 sequence (whole entry): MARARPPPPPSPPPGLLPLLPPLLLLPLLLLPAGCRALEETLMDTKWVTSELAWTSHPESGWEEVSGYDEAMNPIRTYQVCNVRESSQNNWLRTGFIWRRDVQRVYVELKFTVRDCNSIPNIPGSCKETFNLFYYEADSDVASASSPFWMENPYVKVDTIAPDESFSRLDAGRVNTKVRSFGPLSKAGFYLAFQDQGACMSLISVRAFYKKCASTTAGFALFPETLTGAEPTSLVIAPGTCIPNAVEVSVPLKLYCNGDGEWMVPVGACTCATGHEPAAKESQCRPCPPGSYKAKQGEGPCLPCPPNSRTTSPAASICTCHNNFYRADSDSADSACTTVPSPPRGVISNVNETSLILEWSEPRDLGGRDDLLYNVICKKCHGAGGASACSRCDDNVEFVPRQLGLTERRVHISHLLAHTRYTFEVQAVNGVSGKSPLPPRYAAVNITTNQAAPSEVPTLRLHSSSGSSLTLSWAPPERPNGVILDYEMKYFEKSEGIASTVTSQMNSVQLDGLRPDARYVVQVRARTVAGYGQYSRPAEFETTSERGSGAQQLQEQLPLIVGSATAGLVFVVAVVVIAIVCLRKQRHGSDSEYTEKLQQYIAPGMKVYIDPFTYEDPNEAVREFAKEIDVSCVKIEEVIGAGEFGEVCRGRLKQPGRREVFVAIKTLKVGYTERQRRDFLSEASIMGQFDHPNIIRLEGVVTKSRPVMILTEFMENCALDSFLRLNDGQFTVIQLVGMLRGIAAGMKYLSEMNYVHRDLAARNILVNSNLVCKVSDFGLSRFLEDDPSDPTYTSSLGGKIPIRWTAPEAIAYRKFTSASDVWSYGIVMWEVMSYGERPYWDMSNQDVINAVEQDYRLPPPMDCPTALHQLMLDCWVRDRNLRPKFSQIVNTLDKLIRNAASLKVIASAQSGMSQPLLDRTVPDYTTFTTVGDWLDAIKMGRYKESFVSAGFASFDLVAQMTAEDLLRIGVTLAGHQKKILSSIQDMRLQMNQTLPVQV

Misshapen-like kinase 1 (Homo sapiens), sequence (Q8N4C8 whole entry, looked up): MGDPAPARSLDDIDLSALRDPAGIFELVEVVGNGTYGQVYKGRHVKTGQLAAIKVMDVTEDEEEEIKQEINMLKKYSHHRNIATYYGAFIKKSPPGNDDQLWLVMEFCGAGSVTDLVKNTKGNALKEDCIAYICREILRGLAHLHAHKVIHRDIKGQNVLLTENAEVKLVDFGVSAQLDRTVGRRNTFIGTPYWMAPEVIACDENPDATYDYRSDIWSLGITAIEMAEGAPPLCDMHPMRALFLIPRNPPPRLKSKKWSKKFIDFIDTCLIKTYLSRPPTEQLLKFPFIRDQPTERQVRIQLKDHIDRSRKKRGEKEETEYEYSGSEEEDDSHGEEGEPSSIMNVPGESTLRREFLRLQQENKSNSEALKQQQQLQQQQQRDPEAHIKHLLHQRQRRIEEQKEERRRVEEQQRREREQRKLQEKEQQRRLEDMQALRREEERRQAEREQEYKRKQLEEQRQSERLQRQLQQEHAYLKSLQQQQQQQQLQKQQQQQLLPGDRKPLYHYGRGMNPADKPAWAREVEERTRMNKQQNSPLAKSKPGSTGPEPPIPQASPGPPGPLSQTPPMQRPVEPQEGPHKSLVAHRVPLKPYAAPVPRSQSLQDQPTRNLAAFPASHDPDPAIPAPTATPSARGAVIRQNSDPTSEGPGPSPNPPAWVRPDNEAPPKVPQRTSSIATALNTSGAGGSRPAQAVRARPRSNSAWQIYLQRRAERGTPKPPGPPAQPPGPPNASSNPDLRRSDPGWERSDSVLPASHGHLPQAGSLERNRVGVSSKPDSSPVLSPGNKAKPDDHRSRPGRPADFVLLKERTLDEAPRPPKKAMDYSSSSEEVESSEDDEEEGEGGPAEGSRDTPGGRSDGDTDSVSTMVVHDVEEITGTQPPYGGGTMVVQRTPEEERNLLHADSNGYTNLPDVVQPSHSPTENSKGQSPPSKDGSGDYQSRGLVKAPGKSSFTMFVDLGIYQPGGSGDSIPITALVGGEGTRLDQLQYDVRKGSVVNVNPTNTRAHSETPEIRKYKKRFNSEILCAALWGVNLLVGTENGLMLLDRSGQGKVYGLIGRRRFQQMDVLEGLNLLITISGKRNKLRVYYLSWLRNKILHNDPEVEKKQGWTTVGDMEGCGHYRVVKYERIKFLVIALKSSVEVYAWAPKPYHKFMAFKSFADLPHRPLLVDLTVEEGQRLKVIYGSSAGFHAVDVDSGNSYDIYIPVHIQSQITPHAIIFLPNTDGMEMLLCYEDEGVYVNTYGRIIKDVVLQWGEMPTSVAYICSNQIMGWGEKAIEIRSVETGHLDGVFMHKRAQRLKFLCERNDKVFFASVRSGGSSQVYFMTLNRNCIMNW
Mitogen-activated protein kinase 10 (Homo sapiens), sequence (P53779 whole entry): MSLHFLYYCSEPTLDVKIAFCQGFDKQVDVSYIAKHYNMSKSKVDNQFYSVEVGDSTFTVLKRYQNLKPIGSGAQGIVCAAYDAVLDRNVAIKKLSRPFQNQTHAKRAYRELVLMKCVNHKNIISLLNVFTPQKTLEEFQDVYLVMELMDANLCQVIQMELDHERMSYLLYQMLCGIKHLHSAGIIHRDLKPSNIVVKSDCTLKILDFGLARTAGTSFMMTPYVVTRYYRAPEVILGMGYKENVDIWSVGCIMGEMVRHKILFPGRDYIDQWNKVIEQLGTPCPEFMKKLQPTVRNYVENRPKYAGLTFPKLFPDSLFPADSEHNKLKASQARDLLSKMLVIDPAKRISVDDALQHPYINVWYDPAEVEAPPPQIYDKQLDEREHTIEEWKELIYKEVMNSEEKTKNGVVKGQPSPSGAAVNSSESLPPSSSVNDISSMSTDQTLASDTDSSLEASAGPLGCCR

SMILES | residual activity [1] [%] | residual activity [2] [%] | residual activity [3] [%] | residual activity [4] [%] | residual activity [5] [%]
CNC(=O)c1ccc2c(c1)ncn2-c1ccc(CC(=O)OC(C)(C)C)cc1 | 104 | 104 | 99.7 | 91.8 | 93.6
Cc1cc(-c2cnc(N)c3c(-c4ccc5scnc5c4)csc23)n(C)n1 | 85.9 | 94.8 | 6.75 | 19.5 | 91.4
CC(C)S(=O)(=O)c1ccc2nccc(Nc3ccc4scnc4c3)c2c1 | 106 | 87.7 | 41.8 | 94.6 | 61.2
